The target of data set [1] is T1, Tyrosine-protein phosphatase non-receptor type 1 (Homo sapiens) (UniProt P18031).
T1 sequence (whole entry): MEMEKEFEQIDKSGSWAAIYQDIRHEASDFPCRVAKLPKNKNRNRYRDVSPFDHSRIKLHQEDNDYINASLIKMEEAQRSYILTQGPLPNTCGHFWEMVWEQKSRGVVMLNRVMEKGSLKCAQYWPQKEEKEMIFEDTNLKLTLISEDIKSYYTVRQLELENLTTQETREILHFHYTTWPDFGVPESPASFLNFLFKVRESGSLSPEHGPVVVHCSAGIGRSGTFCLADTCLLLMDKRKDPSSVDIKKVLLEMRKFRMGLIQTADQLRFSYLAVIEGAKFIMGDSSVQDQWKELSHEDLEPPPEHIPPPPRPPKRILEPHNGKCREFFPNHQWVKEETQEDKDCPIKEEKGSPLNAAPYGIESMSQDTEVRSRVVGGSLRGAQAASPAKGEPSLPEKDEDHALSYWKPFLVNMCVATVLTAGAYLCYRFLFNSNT
Kind of data set: Inhibition of recombinant human PTP1B using pNPP as substrate assessed as residual activity at 30 uM after 30 mins by spectrometric method relative to control.

Data set [2] addresses T2, Tyrosine-protein phosphatase non-receptor type 1 (Homo sapiens, UniProt P18031).
T2 sequence (P18031 whole entry): T1 sequence (whole entry)
Kind of data set: Inhibition of recombinant human PTP1B using pNPP as substrate assessed as residual activity after 30 mins by spectrometric method.

In data set [3] the test system is HepG2. Kind of data set: Cytotoxicity against human HepG2 cells assessed as decrease in cell viability at > 30 uM after 24 hrs by resazurin dye based assay. Conditions: hepg2, 24 h.
The target of data set [4] is T1, Tyrosine-protein phosphatase non-receptor type 1 (Homo sapiens). Kind of data set: Inhibition of PTP1B in human HepG2 cells assessed as increase in insulin-stimulated IR tyrosine phosphorylation at Y1150/1151 residues preincubated for 30 mins followed by insulin addition measured after 5 mins by immuno blot method. It is filed as cell-based.
Data set [5] has as its system HepG2. Kind of data set: Cytotoxicity against human HepG2 cells assessed as decrease in cell viability at > 30 uM after 24 hrs by crystal violet staining based assay. The following applies: hepg2, 24 h.

Turning to `O=C(OC[C@H]1O[C@@H](Oc2cc(O)cc(O)c2C(=O)CCc2ccc(O)c(O)c2)[C@H](O)[C@@H](O)[C@@H]1O)c1cc(O)c(O)c(O)c1`, in data set [1], the Activity was determined as 91.7%.
For orientation: IC50 means the point on the concentration scale where inhibition reaches its midpoint. Consider `O=C1OC[C@H]2O[C@@H](Oc3cc(O)c(C(=O)CCc4ccc(O)cc4)c(O)c3)[C@H](O)[C@@H](O)[C@@H]2OC(=O)c2cc(O)c(O)c(O)c2-c2c1cc(O)c(O)c2O`, for which, in data set [1], the Activity is 30.9%. The IC50 in data set [2] came out at 23.8 µM.
In the same order, the values of `O=C(O[C@@H]1[C@@H](O)[C@H](Oc2cc(O)cc(O)c2C(=O)CCc2ccc(O)cc2)O[C@@H]2COC(=O)c3cc(O)c(O)c(O)c3-c3c(cc(O)c(O)c3O)C(=O)O[C@@H]12)c1cc(O)c(O)c(O)c1` are 20.8% and 19.3 µM.
The corresponding values for `O=C1OC[C@H]2O[C@@H](Oc3cc(O)c(C(=O)CCc4ccccc4)c(O)c3)[C@H](O)[C@@H](O)[C@@H]2OC(=O)c2cc(O)c(O)c(O)c2-c2c1cc(O)c(O)c2O` [THONNINGIANIN B] are 28.5% and 21.7 µM.
Take `COc1cc([C@H]2OC[C@H]3[C@@H]2CO[C@@H]3c2ccc(O)c(OC)c2)ccc1O`: the Activity in data set [1] was 98.6%.
On the same count and under the same terms, the result for `COc1cc(/C=C/CO)ccc1O[C@@H]1O[C@H](CO)[C@@H](O)[C@H](O)[C@H]1O` reads 99.2%; that for `O=C(CCc1ccccc1)c1c(O)cc(O[C@@H]2O[C@H](CO)[C@@H](O)[C@H](O)[C@H]2O)cc1O`, 97.7%.
In the case of `O=C(OC[C@H]1O[C@@H](Oc2cc(O)c(C(=O)CCc3ccccc3)c(O)c2)[C@H](O)[C@@H](O)[C@@H]1O)c1cc(O)c(O)c(O)c1`, the Activity in data set [1] is 99.4%.
Same read-out and setting: the result for `O=C(CCc1ccc(O)c(O)c1)c1c(O)cc(O)cc1O[C@@H]1O[C@H](CO)[C@@H](O)[C@H](O)[C@H]1O` reads 102%.
As to `O=C(O[C@@H]1[C@@H](O)[C@H](Oc2cc(O)c(C(=O)CCc3ccccc3)c(O)c2)O[C@@H]2COC(=O)c3cc(O)c(O)c(O)c3-c3c(cc(O)c(O)c3O)C(=O)O[C@@H]12)c1cc(O)c(O)c(O)c1` [THONNINGIANIN A], the Activity result in the data set with HepG2 [3] was “Toxic”; in data set [1], 1.9%; in the data set on HepG2 [5], “Toxic”. Also, in data set [4], the inhibition entry is “Dose-dependent effect”. For the same molecule, the IC50 in data set [2] is 4.4 µM.
For the molecule `O=C(O[C@@H]1[C@@H](O)[C@H](Oc2cc(O)cc(O)c2C(=O)CCc2ccc(O)c(O)c2)O[C@@H]2COC(=O)c3cc(O)c(O)c(O)c3-c3c(cc(O)c(O)c3O)C(=O)O[C@@H]12)c1cc(O)c(O)c(O)c1`, the Activity in data set [1] came to 29.2%. In data set [2], the IC50 is 24.7 µM.
For `COc1cc(C[C@H]2CO[C@H](c3ccc(O)c(OC)c3)[C@H]2CO)ccc1O`, the Activity in data set [1] stood at 86.1%.
On the same count and under the same terms, the result for `O=C1OC[C@H]2O[C@@H](Oc3cc(O)cc(O)c3C(=O)CCc3ccc(O)c(O)c3)[C@H](O)[C@@H](O)[C@@H]2OC(=O)c2cc(O)c(O)c(O)c2-c2c1cc(O)c(O)c2O` reads 84.4%.

(Values after ChEMBL document CHEMBL4196205, “Dihydrochalcone Glucosides from the Subaerial Parts of Thonningia sanguinea and Their in Vitro PTP1B Inhibitory Activities” (J Nat Prod, 2018).)
